Results taken from PMC4208647, “Essential role of vesicular nucleotide transporter in vesicular storage and release of nucleotides in platelets” (Physiological Reports, 2014).
pIC50: −log10 of the molar value. Read-outs that look alike come from different tables or passages of the source.

Assays:
Assay type in all cases: biochemical
[1] = target: T1, VGAT (vesicular GABA transporter) (Rattus norvegicus, UniProt O35458); test: inhibition of valinomycin-evoked radiolabelled substrate uptake into proteoliposomes
T1 construct: gene Slc32a1; recombinant, expressed in insect cells or E. coli, Ni-NTA purified, reconstituted in asolectin liposomes
T1 sequence (O35458 1-525): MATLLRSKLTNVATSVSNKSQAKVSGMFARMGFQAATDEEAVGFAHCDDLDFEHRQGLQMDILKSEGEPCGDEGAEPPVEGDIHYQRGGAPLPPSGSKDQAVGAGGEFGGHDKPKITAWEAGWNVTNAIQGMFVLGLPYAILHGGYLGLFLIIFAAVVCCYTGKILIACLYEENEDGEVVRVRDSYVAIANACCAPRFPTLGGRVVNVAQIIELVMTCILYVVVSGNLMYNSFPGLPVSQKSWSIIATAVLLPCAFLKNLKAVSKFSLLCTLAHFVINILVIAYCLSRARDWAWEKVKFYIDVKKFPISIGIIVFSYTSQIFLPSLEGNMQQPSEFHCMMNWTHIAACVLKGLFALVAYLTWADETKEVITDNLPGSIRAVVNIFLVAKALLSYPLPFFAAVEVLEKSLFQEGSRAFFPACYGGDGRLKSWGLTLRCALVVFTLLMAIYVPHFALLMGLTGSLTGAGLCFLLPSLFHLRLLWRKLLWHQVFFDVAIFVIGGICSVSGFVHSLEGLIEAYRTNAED
Text: inhibition of valinomycin-evoked radiolabelled substrate uptake into proteoliposomes on VGAT (vesicular GABA transporter)

[2] = target: T2, VAChT (vesicular acetylcholine transporter) (Homo sapiens, UniProt Q16572); test: inhibition of ATP-driven radiolabelled substrate uptake into proteoliposomes with F-ATPase
T2 construct: gene SLC18A3; recombinant, expressed in insect cells or E. coli, Ni-NTA purified, co-reconstituted with bacterial F-ATPase in liposomes
T2 sequence (Q16572 1-532): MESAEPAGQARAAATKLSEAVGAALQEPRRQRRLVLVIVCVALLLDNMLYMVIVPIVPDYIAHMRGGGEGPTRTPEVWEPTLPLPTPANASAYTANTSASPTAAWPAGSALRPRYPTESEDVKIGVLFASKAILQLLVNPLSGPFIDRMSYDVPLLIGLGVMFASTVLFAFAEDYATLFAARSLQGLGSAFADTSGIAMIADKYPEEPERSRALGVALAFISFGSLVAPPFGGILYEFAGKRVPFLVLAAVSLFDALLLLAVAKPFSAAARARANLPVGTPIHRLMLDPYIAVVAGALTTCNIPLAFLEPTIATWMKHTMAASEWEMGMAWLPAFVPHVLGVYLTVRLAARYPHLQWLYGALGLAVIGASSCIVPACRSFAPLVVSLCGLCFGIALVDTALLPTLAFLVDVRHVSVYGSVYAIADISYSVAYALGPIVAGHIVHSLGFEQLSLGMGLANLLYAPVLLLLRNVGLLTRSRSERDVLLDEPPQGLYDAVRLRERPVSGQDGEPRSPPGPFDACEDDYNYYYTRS
Text: inhibition of ATP-driven radiolabelled substrate uptake into proteoliposomes with F-ATPase on VAChT (vesicular acetylcholine transporter)

[3] = target: T3, VMAT2 (vesicular monoamine transporter 2) (Rattus norvegicus, UniProt Q01827); test: as above
T3 construct: gene Slc18a2; recombinant, expressed in insect cells or E. coli, Ni-NTA purified, co-reconstituted with bacterial F-ATPase in liposomes
Text: inhibition of ATP-driven radiolabelled substrate uptake into proteoliposomes with F-ATPase on VMAT2 (vesicular monoamine transporter 2)

[4] = target: T4, VNUT (vesicular nucleotide transporter, SLC17A9 protein) (Homo sapiens, UniProt Q9BYT1); test: inhibition of valinomycin-evoked radiolabelled substrate uptake into proteoliposomes
T4 construct: recombinant, expressed in insect cells or E. coli, octylglucoside-solubilized, Ni-NTA purified, reconstituted in asolectin liposomes
T4 sequence (Q9BYT1 1-436): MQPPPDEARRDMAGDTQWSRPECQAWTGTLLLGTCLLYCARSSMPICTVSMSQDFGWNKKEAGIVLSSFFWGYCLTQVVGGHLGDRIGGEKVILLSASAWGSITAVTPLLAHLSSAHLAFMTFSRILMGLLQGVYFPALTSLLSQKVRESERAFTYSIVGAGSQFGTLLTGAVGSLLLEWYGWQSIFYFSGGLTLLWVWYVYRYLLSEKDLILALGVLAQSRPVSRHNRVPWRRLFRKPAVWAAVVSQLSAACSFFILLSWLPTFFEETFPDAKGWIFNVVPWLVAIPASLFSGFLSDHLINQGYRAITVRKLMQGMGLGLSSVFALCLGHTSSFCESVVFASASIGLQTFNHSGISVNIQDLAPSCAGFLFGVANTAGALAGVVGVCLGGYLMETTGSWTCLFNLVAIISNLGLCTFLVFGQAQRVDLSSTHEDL

[5] = target: T5, VEAT (vesicular excitatory amino acid transporter) (Mus musculus, UniProt Q8BN82); test: as above
T5 construct: gene Slc17a5; recombinant, expressed in insect cells or E. coli, Ni-NTA purified, reconstituted in asolectin liposomes
T5 sequence (Q8BN82 1-495): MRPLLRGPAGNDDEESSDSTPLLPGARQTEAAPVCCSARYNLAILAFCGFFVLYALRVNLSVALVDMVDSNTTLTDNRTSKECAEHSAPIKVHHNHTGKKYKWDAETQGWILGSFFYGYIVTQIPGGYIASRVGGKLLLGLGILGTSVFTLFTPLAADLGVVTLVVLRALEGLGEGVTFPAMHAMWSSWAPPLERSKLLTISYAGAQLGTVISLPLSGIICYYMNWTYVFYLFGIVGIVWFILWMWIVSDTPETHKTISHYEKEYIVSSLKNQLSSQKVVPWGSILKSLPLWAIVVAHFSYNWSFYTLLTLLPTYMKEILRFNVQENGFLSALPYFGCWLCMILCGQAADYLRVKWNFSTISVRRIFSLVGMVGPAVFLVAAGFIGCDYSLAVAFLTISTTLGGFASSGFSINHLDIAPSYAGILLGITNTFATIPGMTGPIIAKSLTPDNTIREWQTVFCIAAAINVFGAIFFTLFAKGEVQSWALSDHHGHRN
Text: inhibition of valinomycin-evoked radiolabelled substrate uptake into proteoliposomes on VEAT (vesicular excitatory amino acid transporter)

[6] = read-out: IC50 (μmol/L) / Acetoacetate
[7] = read-out: IC50 (μmol/L) / Glyoxylate

T3 sequence (Q01827 whole entry): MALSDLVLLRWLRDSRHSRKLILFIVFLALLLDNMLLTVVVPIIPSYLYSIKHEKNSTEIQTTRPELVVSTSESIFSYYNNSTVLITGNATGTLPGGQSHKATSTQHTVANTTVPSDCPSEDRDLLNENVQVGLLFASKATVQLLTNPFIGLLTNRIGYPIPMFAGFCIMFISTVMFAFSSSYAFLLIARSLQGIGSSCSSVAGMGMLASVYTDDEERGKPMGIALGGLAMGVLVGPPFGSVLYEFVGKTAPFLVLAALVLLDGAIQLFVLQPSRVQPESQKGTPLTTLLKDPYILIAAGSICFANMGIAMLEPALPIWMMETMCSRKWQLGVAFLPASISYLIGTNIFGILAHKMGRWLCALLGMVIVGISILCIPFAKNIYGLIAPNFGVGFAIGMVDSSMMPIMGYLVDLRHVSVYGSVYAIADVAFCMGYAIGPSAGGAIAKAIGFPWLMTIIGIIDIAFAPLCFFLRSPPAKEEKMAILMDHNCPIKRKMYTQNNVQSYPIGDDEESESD

pIC50 [1]	pIC50 [2]	pIC50 [3]	pIC50 [4, 6]	pIC50 [5, 6]	pIC50 [4, 7]	pIC50 [5, 7]	SMILES
< 2.00	< 2.00	< 2.00	3.72	3.89	–	–	CC(=O)CC(=O)O [acetoacetate]
< 2.00	< 2.00	< 2.00	–	–	5.39	4.28	O=CC(=O)O [glyoxylate]
